{
  "source": "patent US20170114346A1",
  "about": "“GENE EXPRESSION SYSTEM AND […]” (priority 2014, published 2017)",
  "system": "6-OHDA lesioned rats (striatum)",
  "test": "Experiment 1 online microdialysis in anesthetized rats (baseline, NSD-1015, NSD+TMP)",
  "assay_type": "in vivo, rat",
  "procedure": "The second microdialysis protocol in Experiment 1 (identical microdialysis methods and protocols were used in the pilot study) was performed in anaesthetized animals was performed in TH+DD-GCH1 treated animals that received oral TMP administration in their drinking water at least 2 weeks prior sampling; either 0.5 mg/ml (n=4) or 2 mg/ml (n=5) (same TMP emulsion that was administered to the animals followed with behavior tests). In addition, this experiment also included animals from the TH+GCH1 (n=3), Les-Sham (n=2) and intact control (n=3) groups. Probe placement was calculated to position the membrane of the probe in the center of the transduction area in striatum, which corresponded to the coordinates: AP: +0.5 mm; ML: −3.7 mm and DV: −5.7 mm with the tooth bar set to −2.4 mm. […] Samples were analyzed readily as described for the first microdialysis experiment. After the last sample was collected the animal was terminated and brain tissue taken for histology.",
  "data": [
    {"smiles": "COc1cc(Cc2cnc(N)nc2N)cc(OC)c1OC", "note": "[TMP, trimethoprim]", "values": [
      {"measurement": "biochemical reconstitution with oral TMP", "setting": "0.5 and 2.0 mg/ml TMP in drinking water, TH+DD-GCH1 treated rats", "result": "both were effective in reaching a similar biochemical reconstitution"},
      {"measurement": "DOPA levels after addition of TMP to the ringer solution", "setting": "2E-5 M TMP lactate plus NSD-1015 via probe for 2 h, after 2 weeks oral TMP", "result": "did not further increase the DOPA levels"}
    ]}
  ]
}
